From ChEMBL document CHEMBL1155393, “Rational design of potent GSK3beta inhibitors with selectivity for Cdk1 and Cdk2” (Bioorg Med Chem Lett, 2010) come the findings set out here.

One may read the IC50 as the midpoint of a concentration-inhibition curve.

Sequence of Glycogen synthase kinase-3 beta (P49841 whole entry): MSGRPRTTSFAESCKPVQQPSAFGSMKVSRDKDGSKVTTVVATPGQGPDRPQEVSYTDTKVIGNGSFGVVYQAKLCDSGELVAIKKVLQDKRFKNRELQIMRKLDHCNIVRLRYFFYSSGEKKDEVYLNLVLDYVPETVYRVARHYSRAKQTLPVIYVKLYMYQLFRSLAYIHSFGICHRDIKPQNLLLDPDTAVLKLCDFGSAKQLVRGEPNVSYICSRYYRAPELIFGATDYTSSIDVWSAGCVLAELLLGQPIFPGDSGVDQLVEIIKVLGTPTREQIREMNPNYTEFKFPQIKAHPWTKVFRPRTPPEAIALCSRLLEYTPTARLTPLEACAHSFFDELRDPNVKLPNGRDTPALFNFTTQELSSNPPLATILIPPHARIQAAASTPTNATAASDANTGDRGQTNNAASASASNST

One assay concerns the target Glycogen synthase kinase-3 beta (Homo sapiens, UniProt P49841). The assay can be described thus: Inhibition of human recombinant GSK3-beta using gamma[33P]-ATP after 30 mins by scintillation proximity assay.
For the compound `CCCC(=O)Nc1n[nH]c2cc(Cl)c(-c3ccc(CC)cc3)cc12`, the IC50 was 0.012 µM.
With `CCCC(=O)Nc1n[nH]c2cc(Cl)c(-c3ccoc3)cc12`, the IC50 stood at 0.011 µM.
As to `CCCC(=O)Nc1n[nH]c2cc(Cl)c(-c3ccncc3)cc12`, the IC50 stood at 0.05 µM.
For the compound `CCCC(=O)Nc1n[nH]c2cc(-c3ccc(O)cc3)c(-c3ccoc3)cc12`, the IC50 is 0.098 µM.
Turning to `CCCC(=O)Nc1n[nH]c2cc(-c3ccc(Oc4ccccc4)cc3)c(-c3ccc(Oc4ccccc4)cc3)cc12`, the IC50 is above 10 µM.
As for `CCCC(=O)Nc1n[nH]c2cc(-c3ccc(SC)cc3)ccc12`, the IC50 was determined as 7.16 µM.
`CCCC(=O)Nc1n[nH]c2cc(Cc3ccccc3)ccc12`: the IC50 amounted to 4.14 µM.
As for `CCCC(=O)Nc1n[nH]c2cc(-c3ccc(CC)cc3)ccc12`, the IC50 is above 100 µM.
As for `CCCC(=O)Nc1n[nH]c2cc(-c3ccc(C(F)(F)F)cc3)ccc12`, the IC50 amounted to 10.5 µM.
For the compound `CCCC(=O)Nc1n[nH]c2cc(Cl)ccc12`, the IC50 stood at 0.354 µM.
Take `CCCC(=O)Nc1n[nH]c2cc(-c3ccc(O)c(O)c3)ccc12`: the IC50 worked out at 0.027 µM.
Consider `CCCC(=O)Nc1n[nH]c2cc(-c3ccc(O)cc3)ccc12`, for which the IC50 turned out to be 0.044 µM.
On the same count and under the same terms, with `CCCC(=O)Nc1n[nH]c2cc(-c3ccsc3)ccc12` the figure was 0.935 µM; with `CCCC(=O)Nc1n[nH]c2cc(-c3ccc(N)nc3)ccc12`, 1.09 µM.
Consider `CCCC(=O)Nc1n[nH]c2cc(-c3ccc4c(c3)COO4)ccc12`, for which the IC50 was found to be 25 µM.
On to `CCCC(=O)Nc1n[nH]c2cc(-c3ccc([N+](=O)[O-])cc3)ccc12`, for which the half-inhibitory concentration (IC50) was above 100 µM.
With `O=C(O)CCC(=O)Nc1n[nH]c2cc(Cl)ccc12`, the IC50 is 1.18 µM.
Turning to `CCCC(=O)Nc1n[nH]c2cc(-c3ccc(F)cc3)ccc12`, the IC50 came to 5.01 µM.
Consider `CCCC(=O)Nc1n[nH]c2cc(-c3cc(Cl)cc(Cl)c3)ccc12`, for which the IC50 turned out to be 5.41 µM.
As for `CCCC(=O)Nc1n[nH]c2cc(-c3ccc(OC(F)(F)F)cc3)ccc12`, the IC50 was 5.5 µM.
With `CCCC(=O)Nc1n[nH]c2cc(CCc3ccccc3)ccc12`, the half-inhibitory concentration (IC50) was found to be 8.53 µM.
On to `Cc1ccc(-c2ccc3c(NC(=O)CCC(=O)O)n[nH]c3c2)cc1`, for which the IC50 is 17.1 µM.
Same read-out and setting: the figure for `N#Cc1ccc(-c2ccc3c(NC(=O)CCC(=O)O)n[nH]c3c2)cc1` is 20.5 µM.
Regarding `CCCC(=O)Nc1n[nH]c2cc(-c3ccc(N(C)C)cc3)ccc12`, the 50% inhibitory concentration (IC50) came out at 12.2 µM.
Regarding `CCCC(=O)Nc1n[nH]c2cc(-c3ccc(O)nc3)ccc12`, the IC50 stood at 16.8 µM.
Still for that read-out and setting: the figure for `CCCC(=O)Nc1n[nH]c2cc(-c3ccc(OCc4ccccc4)cc3)ccc12` is 1.18 µM.
Consider `CCCC(=O)Nc1n[nH]c2cc(-c3ccccc3)ccc12`, for which the IC50 was found to be 1.28 µM.
The same measure, in the same setting: with `CCCC(=O)Nc1n[nH]c2cc(-c3ccccc3Cl)ccc12` the figure was 1.35 µM; with `C/C=C/c1ccc2c(NC(=O)CCC)n[nH]c2c1`, 2.46 µM.
On to `CCCC(=O)Nc1n[nH]c2cc(-c3ccc(OC)cc3)ccc12`, for which the IC50 is above 100 µM.
With `CCCC(=O)Nc1n[nH]c2cc(-c3ccc(Cl)cc3)ccc12`, the IC50 was above 100 µM.
Take `CCCC(=O)Nc1n[nH]c2c(F)c(Cl)c(-c3ccccc3)cc12`: the IC50 came to 0.006 µM.
Regarding `CCCC(=O)Nc1n[nH]c2cc(-c3ccc(N)cc3)ccc12`, the IC50 was 0.076 µM.
Take `CCCC(=O)Nc1n[nH]c2cc(-c3cccc(O)c3)ccc12`: the IC50 came to 0.094 µM.
In the case of `CCCC(=O)Nc1n[nH]c2cc(C(F)(F)F)ccc12`, the IC50 was 0.195 µM.
In the case of `CCCC(=O)Nc1n[nH]c2cc(Br)ccc12`, the IC50 amounted to 0.198 µM.
On to `CCCC(=O)Nc1n[nH]c2cc(-c3ccoc3)ccc12`, for which the IC50 was 0.26 µM.
As to `CCCC(=O)Nc1n[nH]c2cc(-c3ccncc3)ccc12`, the IC50 is 0.661 µM.
`CCCC(=O)Nc1n[nH]c2cc(-c3ccc(O)cc3Cl)ccc12`: the IC50 turned out to be 0.055 µM.
Still for that read-out and setting: the figure for `CCCC(=O)Nc1n[nH]c2cc(-c3ccc(O)cc3)c(-c3ccco3)cc12` is 0.014 µM; for `CCCC(=O)Nc1n[nH]c2cc(Cl)c(-c3ccc([N+](=O)[O-])cc3)cc12` it is 0.018 µM.
Consider `CCCC(=O)Nc1n[nH]c2cc(Cl)c(-c3ccc(F)cc3)cc12`, for which the IC50 came to 0.022 µM.
Consider `CCCC(=O)Nc1n[nH]c2cc(Cl)c(-c3ccc(OCc4ccccc4)cc3)cc12`, for which the IC50 was 0.023 µM.
With `CCCC(=O)Nc1n[nH]c2cc(-c3ccc(O)cc3)c(-c3cccnc3)cc12`, the IC50 came to 0.149 µM.
As to `CCCC(=O)Nc1n[nH]c2cc(-c3ccc(O)cc3)c(-c3ccc(CC)cc3)cc12`, the IC50 was found to be 0.049 µM.
Same read-out and setting: the figure for `CCCC(=O)Nc1n[nH]c2cc(-c3ccc(O)cc3)c(-c3ccc(O)cc3)cc12` is 0.056 µM; for `CCCC(=O)Nc1n[nH]c2cc(-c3ccc(O)cc3)c(-c3ccccc3)cc12` it is 0.055 µM.
Regarding `CCCC(=O)Nc1n[nH]c2cc(-c3ccccc3)c(-c3ccccc3)cc12`, the IC50 came out at 1.72 µM.
Turning to `CCCC(=O)Nc1n[nH]c2cc(-c3ccc(O)cc3)c(Br)cc12`, the IC50 worked out at 0.005 µM.
For `CCCC(=O)Nc1n[nH]c2cc(-c3cc(F)cc(F)c3)ccc12`, the IC50 was 2.89 µM.
Same read-out and setting: the figure for `CCCC(=O)Nc1n[nH]c2cc(-c3ccc(C(C)(C)C)cc3)ccc12` is 3.81 µM.
Consider `CCCC(=O)Nc1n[nH]c2cc(Cl)c(-c3ccccc3)cc12`, for which the IC50 turned out to be 0.007 µM.
`CCCC(=O)Nc1n[nH]c2cc(Cl)c(-c3ccc(N)cc3)cc12`: the IC50 came to 0.008 µM.
Regarding `CCCC(=O)Nc1n[nH]c2cc(Cl)c(-c3ccc(O)cc3)cc12`, the IC50 was determined as 0.01 µM.
As to `CCCC(=O)Nc1n[nH]c2c(Cl)c(Cl)c(-c3ccccc3)cc12`, the IC50 amounted to 0.012 µM.
On the same count and under the same terms, with `CCCC(=O)Nc1n[nH]c2cc(Cl)c(-c3ccc(C)cc3)cc12` the figure was 0.014 µM.

The target in a further assay is Microtubule-associated protein tau (Rattus norvegicus, UniProt P19332). Description: Inhibition of Tau phosphorylation in rat cerebral cortex after 120 mins by chemiluminescence assay. The assay is classed as tissue-based.
Sequence of Microtubule-associated protein tau (P19332 whole entry): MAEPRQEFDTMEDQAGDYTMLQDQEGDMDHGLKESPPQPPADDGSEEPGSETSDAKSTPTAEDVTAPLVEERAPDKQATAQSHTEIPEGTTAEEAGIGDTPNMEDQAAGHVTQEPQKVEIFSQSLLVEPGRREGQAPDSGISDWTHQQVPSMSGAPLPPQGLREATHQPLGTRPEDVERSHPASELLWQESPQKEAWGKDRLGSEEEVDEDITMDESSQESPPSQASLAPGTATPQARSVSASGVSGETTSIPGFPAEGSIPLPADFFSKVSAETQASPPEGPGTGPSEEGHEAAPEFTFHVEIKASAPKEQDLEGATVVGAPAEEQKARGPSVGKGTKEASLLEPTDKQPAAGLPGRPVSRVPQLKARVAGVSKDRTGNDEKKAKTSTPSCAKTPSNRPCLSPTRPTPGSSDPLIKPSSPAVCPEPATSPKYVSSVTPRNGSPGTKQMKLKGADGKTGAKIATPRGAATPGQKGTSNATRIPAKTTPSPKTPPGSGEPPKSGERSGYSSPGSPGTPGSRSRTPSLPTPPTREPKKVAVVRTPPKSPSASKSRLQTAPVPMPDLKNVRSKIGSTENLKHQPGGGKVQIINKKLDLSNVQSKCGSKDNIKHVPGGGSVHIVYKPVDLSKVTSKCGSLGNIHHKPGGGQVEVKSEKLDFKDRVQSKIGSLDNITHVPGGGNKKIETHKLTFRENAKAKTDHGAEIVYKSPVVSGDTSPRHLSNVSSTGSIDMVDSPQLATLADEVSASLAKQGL
`CCCC(=O)Nc1n[nH]c2c(F)c(Cl)c(-c3ccccc3)cc12` registered an IC50 of 0.25 µM.
On to `CCCC(=O)Nc1n[nH]c2cc(Cl)c(-c3ccccc3)cc12`, for which the IC50 came out at 0.4 µM.

The target of the next assay is Cyclin-dependent kinase 1 (Homo sapiens, UniProt P06493). The assay can be described thus: Inhibition of Cdk1.
Sequence of Cyclin-dependent kinase 1 (P06493 whole entry): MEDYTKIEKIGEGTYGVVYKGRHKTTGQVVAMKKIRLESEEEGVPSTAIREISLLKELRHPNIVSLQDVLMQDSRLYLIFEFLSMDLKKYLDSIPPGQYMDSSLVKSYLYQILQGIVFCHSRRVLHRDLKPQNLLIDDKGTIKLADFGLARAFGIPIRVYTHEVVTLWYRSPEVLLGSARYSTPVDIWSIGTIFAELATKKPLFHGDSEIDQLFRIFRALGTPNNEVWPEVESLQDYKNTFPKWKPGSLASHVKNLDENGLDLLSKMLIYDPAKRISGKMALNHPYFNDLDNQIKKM
`CCCC(=O)Nc1n[nH]c2c(F)c(Cl)c(-c3ccccc3)cc12` showed an IC50 of 2.5 µM.
In turn, `CCCC(=O)Nc1n[nH]c2cc(Cl)c(-c3ccccc3)cc12` showed an IC50 of 0.1 µM.

For a further assay, the target named is Cyclin-dependent kinase 2 (Homo sapiens, UniProt P24941).
Assay: not given
On to `CCCC(=O)Nc1n[nH]c2c(F)c(Cl)c(-c3ccccc3)cc12`, for which the IC50 was 3.16 µM.
Still for that read-out and setting: the figure for `CCCC(=O)Nc1n[nH]c2c(Cl)c(Cl)c(-c3ccccc3)cc12` is above 10 µM.

The target in the next assay is Aurora kinase A (Homo sapiens) (UniProt O14965). Description: Inhibition of Aurora kinase 2.
Sequence of Aurora kinase A (Homo sapiens) (O14965 whole entry, looked up): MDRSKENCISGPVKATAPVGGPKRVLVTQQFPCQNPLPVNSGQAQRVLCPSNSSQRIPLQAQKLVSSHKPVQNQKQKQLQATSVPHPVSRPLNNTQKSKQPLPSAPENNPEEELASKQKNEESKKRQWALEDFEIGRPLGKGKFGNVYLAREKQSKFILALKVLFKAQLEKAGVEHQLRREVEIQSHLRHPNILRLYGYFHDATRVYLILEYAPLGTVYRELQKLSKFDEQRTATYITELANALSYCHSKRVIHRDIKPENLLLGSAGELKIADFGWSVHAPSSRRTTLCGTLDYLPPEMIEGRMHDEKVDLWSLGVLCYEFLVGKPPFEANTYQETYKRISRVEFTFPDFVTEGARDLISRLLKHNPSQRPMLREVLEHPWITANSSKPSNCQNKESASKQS
Take `CCCC(=O)Nc1n[nH]c2cc(-c3ccc(O)cc3)ccc12`: the IC50 is above 30 µM.
